Measured values taken from patent publication US20070232492A1, “Herbicidal Composition” (Ishihara Sangyo Kaisha, LTD., priority 2004, published 2007).
Read-outs that look alike come from different tables or passages of the source.

Legend:
Assay type in all cases: in vivo
[1] = tested on: rice (Oryza sativa var. Nihonbare); experiment: Growth inhibition (phytotoxicity) of transplanted rice by compound A2 with or without compound D, application under submerged condition, visual rating 7 and 21 days after application; settings: Compound A2 60 g/ha + Compound D 600 g/ha, applied 5 days after implantation; for Growth inhibition rate (%) (average) 7 days: 7 days after application; for Growth inhibition rate (%) (average) 21 days: 21 days after application
Source text: (§1) Growth inhibition rate (%)=0% (equivalent to the non-treated area) to 100% (complete kill)
Paddy field soil was put into a 1/500,000 hectare pot, harrowed and irrigated with a depth of 3 cm. On the next day, rice (Oryza sativa var. Nihonbare) at 2 leaf stage was implanted with a depth of 3 cm. A wettable powder of compound A2 and a wettable powder of compound D were, respectively, diluted with water and applied under submerged condition 5 days after implantation so that the active ingredients became the prescribed amounts, respectively. The state of growth of rice was visually observed 7 days and 21 days after application, and the growth inhibition rate (%) was evaluated in the same is manner as in the above Test Example 1.

[2] = tested on: barnyardgrass (Echinochloa oryzicola vasing); experiment: Growth inhibition of barnyardgrass in paddy soil pots, foliar application with a small sprayer, visual rating and Colby expected value; settings: Echinochloa oryzicola, 504 h, 3.0 to 3.3 leaf stage, 21 days after application, read-out: Growth inhibition rate (%) Observed
Source text: (§2) When the herbicidal activity in a case where two active ingredients are combined, is larger than the simple sum of the respective herbicidal activities of the two active ingredients (the expected activity), it is called a synergistic effect. The activity expected by the combination of two active ingredients can be calculated as follows (Colby S. R., “Weed”, vol. 15, p. 20-22, 1967). E=p+q−(p×q÷100) where p: growth inhibition rate when treated with x (g/a) of herbicide X,
(§3) q: growth inhibition rate when treated with y (g/a) of herbicide Y,
(§4) E: growth inhibition rate expected when treated with x (g/a) of herbicide X and y (g/a) of herbicide Y.
(§5) Namely, when the actual growth inhibition rate (observed value) is larger than the growth inhibition rate by the above calculation (expected value), the activity by the combination can be regarded as showing a synergistic effect.
as §1
Paddy field soil was put into a 1/10,000 are pot, and seeds of barnyardgrass (Echinochloa oryzicola vasing) were sown and left to stand under an irrigated condition with a water depth of 3.5 cm. When barnyardgrass reached 3.0 to 3.3 leaf stage, a wettable powder of compound A2 and a water-based suspension of compound (B11.1) were, respectively, diluted with water in an amount of 1,000 liter/ha, followed by foliar application with a small sprayer. The state of growth was visually observed 21 days after application, and evaluation and calculation were carried out in the same manner as in the above Test Example 1.

[3] = tested on: barnyardgrass (Echinochloa oryzicola vasing); experiment: Growth inhibition of barnyardgrass in paddy soil pots, application under submerged condition, visual rating (observed value) and Colby expected value; settings: Echinochloa oryzicola, soil, read-out: Growth inhibition rate (%) Observed
Method in brief: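 Barnyardgrass (Echinochloa oryzicola vasing) seeds were sown in paddy field soil in 1/10,000 are pots and kept irrigated at a water depth of 3.5 cm. Wettable powders of the active ingredients were diluted with water and applied under submerged conditions at the prescribed amounts. Growth was visually scored from 0% (as untreated) to 100% (complete kill), and expected values were calculated with Colby's formula.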

[4] = tested on: flatsedge (Cyperus serotinus); experiment: Growth inhibition of flatsedge (planted tubers) in paddy soil pots, application under submerged condition, visual rating and Colby expected value; settings: Cyperus serotinus, soil, 720 h, 2.5 to 3.0 leaf stage, 30 days after application, Test Examples 46-60, read-out: Growth inhibition rate (%) Observed
Source text: as §2, §3, §4, §5, §1
(§6) Paddy field soil was put into a 1/10,000 are pot, and tubers of flatsedge (Cyperus serotinus) were planted and left to stand under an irrigated condition with a water depth of 3.5 cm. When flatsedge reached 2.8 to 3.2 leaf stage, wettable powders of compound A2 and compound (B1.2) were, respectively, diluted with water and applied under submerged condition so that the active ingredients became the prescribed amounts, respectively. The state of growth was visually observed 29 days after application, and evaluation and calculation were carried out in the same manner as in the above Test Example 1.
Paddy field soil was put into a 1/3,000 are pot, and tubers of flatsedge (Cyperus serotinus) were planted and left to stand under an irrigated condition with a water depth of 3.5 cm. When flatsedge reached 4 leaf stage, a wettable powder of compound A2 and an emulsifiable concentrate of compound C4 were, respectively, diluted with water and applied under submerged condition so that the active ingredients became the prescribed amounts, respectively. The state of growth was visually observed 21 days after application, and the growth inhibition rate (%) evaluated in the same manner as in the above Test Example 1 (observed value) and the growth inhibition rate (%) calculated by the above-mentioned Colby method (expected value) are shown in Table 32.
as §6, with “2.5” for “2.8”, “3.0” for “3.2”, “A2, compound (D2.3)” for “A2”, “(B4.1)” for “(B1.2)”, “30” for “29”, “evaluated” for “evaluation and calculation were carried out”
as §6, with “2.5” for “2.8”, “3.0” for “3.2”, “A2, compound (D2.3)” for “A2”, “(B6.1)” for “(B1.2)”, “30” for “29”, “evaluated” for “evaluation and calculation were carried out”
Paddy field soil was put into a 1/10,000 are pot, and tubers of flatsedge (Cyperus serotinus) were planted and left to stand under an irrigated condition with a water depth of 3.5 cm. When flatsedge reached 2.5 to 3.0 leaf stage, wettable powders of compound A2, compound (D2.3) and compound (B8.1) were, respectively, diluted with water and applied under submerged condition so that the active ingredients became the prescribed amounts, respectively. […]

[5] = tested on: Japanese bulrush (Scirpus juncoides); experiment: Growth inhibition of Japanese bulrush in paddy soil pots, application under submerged condition, visual rating and Colby expected value; settings: Schoenoplectiella juncoides, soil, 456 h, 3 leaf stage, 19 days after application, Test Example 37, read-out: Growth inhibition rate (%) Observed
Source text: as §2, §3, §4, §5, §1
(§7) Paddy field soil was put into a 1/10,000 are pot, and seeds of Japanese bulrush (Scirpus juncoides) were sown and left to stand under an irrigated condition with a water depth of 3.5 cm. When Japanese bulrush reached 2.3 to 2.6 leaf stage, a wettable powder of compound A2 and granules of compound (B7.1) were, respectively, diluted with water and applied under submerged condition so that the active ingredients became the prescribed amounts, respectively. The state of growth was visually observed 10 days after application, and evaluation and calculation were carried out in the same manner as in the above Test Example 1.
as §7, with “an emulsifiable concentrate” for “granules”, “(B3.1)” for “(B7.1)”
(§8) Paddy field soil was put into a 1/10,000 are pot, and seeds of Japanese bulrush (Scirpus juncoides) were sown and left to stand under an irrigated condition with a water depth of 3.5 cm. When Japanese bulrush reached 2 leaf stage, wettable powders of compound A2, C2 and C4 and granules of compound C6 were, respectively, diluted with water and applied under submerged condition so that the active ingredients became the prescribed amounts, respectively.
Paddy field soil was put into a 1/10,000 are pot, and seeds of Japanese bulrush (Scirpus juncoides) were sown and left to stand under an irrigated condition with a water depth of 3.5 cm. When Japanese bulrush reached 2 leaf stage, wettable powders of compound A2, C2 and C4 and granules of compound C6 were, respectively, diluted with water and applied under submerged condition so that the active ingredients became the prescribed amounts, respectively. The state of growth was visually observed 19 days after application, and the growth inhibition rate (%) evaluated in the same manner as in the above Test Example 1 (observed value) and the growth inhibition rate (%) calculated by the above-mentioned Colby method (expected value) are shown in Tables 36, 37 and 38.
as §8, with “3” for “2”, “A2” for “A2, C2”, “and” for “and C4 and granules of”, “(D2.2)” for “C6”, “respectively. […]” for “respectively.”

CC(C)(SC(=O)N1CCCCC1)c1ccccc1 [(D2.1), S-1-methyl-1-phenylethyl piperidine-1-carbothioate]
Growth inhibition rate (%) (average) 7 days [1]: 5% | Growth inhibition rate (%) (average) 21 days [1]: 10%

COc1cnc(OC)n2nc(NS(=O)(=O)c3c(OCC(F)F)cccc3C(F)(F)F)nc12 [Compound (B11.1), penoxsulam]
inhibition at 4.7 g/ha ([2]; 0.047 g/a): 10% | inhibition at 9.4 g/ha ([2]; 0.094 g/a): 47% | inhibition at 18.8 g/ha ([2]; 0.188 g/a): 80%

Cc1ccc(NC(=O)NC(C)(C)c2ccccc2)cc1 [Compound (D1.1), 1-(1-methyl-1-phenylethyl)-3-p-tolylurea]
inhibition at 563 g/ha ([3]; 528 h, 563 g/ha, 3 leaf stage, 22 days after application, Test Example 36): 0% | inhibition at 1125 g/ha ([3]; 528 h, 1,125 g/ha, 3 leaf stage, 22 days after application, Test Example 36): 10% | inhibition at 1500 g/ha ([4]; 15 g/a): 20% | Growth inhibition rate (%) (average) 7 days [1]: 2% | Growth inhibition rate (%) (average) 21 days [1]: 10%

CCSC(=O)N1CCCCCC1 [Compound (D2.2), S-ethyl azepane-1-carbothioate]
inhibition at 900 g/ha ([5]; 900 g/ha): 60% | inhibition at 1800 g/ha ([5]; 1,800 g/ha): 60% | Growth inhibition rate (%) (average) 7 days [1]: 7% | Growth inhibition rate (%) (average) 21 days [1]: 17%

COc1cccc(N(C)C(=S)Oc2cccc(C(C)(C)C)c2)n1 [Compound (D2.3), O-3-tert-butylphenyl 6-methoxy-2-pyridyl(methyl)thiocarbamate]
inhibition at 188 g/ha ([3]; 504 h, 1.88 g/a, 2.8 to 3.2 leaf stage, 21 days after application, Test Examples 39-43): 0% | inhibition at 375 g/ha ([3]; 504 h, 3.75 g/a, 2.8 to 3.2 leaf stage, 21 days after application, Test Examples 39-43): 0% | inhibition at 188 g/ha ([3]; 528 h, 188 g/ha, 3 leaf stage, 22 days after application, Test Example 38): 3% | inhibition at 375 g/ha ([3]; 528 h, 375 g/ha, 3 leaf stage, 22 days after application, Test Example 38): 7% | inhibition at 600 g/ha ([4]; 6 g/a): 20% | Growth inhibition rate (%) (average) 7 days [1]: 3% | Growth inhibition rate (%) (average) 21 days [1]: 5%
